The values that follow come from PubChem BioAssay (NCI).

Structures are written as SMILES.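 All cell lines were grown in 96-well plates and treated with compound for 48 hours. GI50 = concentration required for 50% inhibition of growth. TGI denotes the concentration required for complete inhibition of growth.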 Where only a bound is given, the exact number is not on record here.

Test systems include COLO 205 colon; HS 578T breast; CCRF-CEM leukemia; HL-60(TB) leukemia; RXF 393 renal; A549 NSCLC; SNB-19 CNS; SF-539 CNS; BT-549 breast; HCC-2998 colon.
Holding throughout (test): NCI anticancer screen, dose series, 48 h

For `N[C@@H]1CCCN(c2c(/C=C3\SC(=O)NC3=O)cccc2-c2ccccc2)C1`, the GI50 in the assay with COLO 205 colon is 11.6 µM; with HS 578T breast, 14 µM; with CCRF-CEM leukemia it was 14 µM; with HL-60(TB) leukemia, 17.8 µM; in the assay on RXF 393 renal it was 6.06 µM; with A549 NSCLC it was 13.6 µM. Also, the GI50 with SNB-19 CNS was 2.93 µM; in the assay on SF-539 CNS it was 8.09 µM; in the assay on BT-549 breast it was 11.5 µM; with HCC-2998 colon, 14.1 µM. In addition, the TGI in the assay with COLO 205 colon was 25.5 µM; in the assay on HS 578T breast, 64 µM; in the assay with CCRF-CEM leukemia, 38.8 µM; in the assay with HL-60(TB) leukemia it was 42.6 µM; with RXF 393 renal, 20.2 µM; in the assay on A549 NSCLC, 31.8 µM. Further, the TGI in the assay on SNB-19 CNS amounted to 13.2 µM; with SF-539 CNS, 22.2 µM; with BT-549 breast it was 24.1 µM; with HCC-2998 colon, 28.6 µM.
Take `Nc1c(C(=O)Nc2ccccc2F)sc2nc3c(cc12)C(=O)CCC3`: the GI50 is 0.696 µM with COLO 205 colon; 2.01 µM with HS 578T breast; 3.46 µM in the assay on CCRF-CEM leukemia; 2.4 µM with HL-60(TB) leukemia; 0.738 µM in the assay on RXF 393 renal; 0.898 µM in the assay with A549 NSCLC. Moreover, the GI50 with SNB-19 CNS is 2.6 µM; in the assay on SF-539 CNS, 0.817 µM; in the assay with HCC-2998 colon, 2.2 µM. Besides, the TGI with COLO 205 colon is 6.81 µM; in the assay on HS 578T breast it was > 25.5 µM; in the assay with CCRF-CEM leukemia, > 100 µM; in the assay with HL-60(TB) leukemia, > 100 µM; with RXF 393 renal it was 3.82 µM; with A549 NSCLC it was > 100 µM. Moreover, the TGI was > 100 µM with SNB-19 CNS, > 22.2 µM in the assay with SF-539 CNS, > 52.5 µM in the assay with BT-549 breast and > 100 µM in the assay with HCC-2998 colon.
`Nc1nc(N)c2nc(CNc3ccc(C(=O)NC(CCCNC(=O)c4ccccc4C(=O)O)C(=O)O)cc3)cnc2n1` (stereo not drawn): the GI50 with COLO 205 colon is 0.0765 µM; in the assay with CCRF-CEM leukemia, 0.00148 µM; in the assay on HL-60(TB) leukemia, 0.00049 µM; with A549 NSCLC, 0.00379 µM; in the assay on SF-539 CNS, 0.00346 µM; in the assay with HCC-2998 colon, 0.00132 µM. Also, the TGI in the assay with COLO 205 colon, with HS 578T breast, in the assay on CCRF-CEM leukemia, in the assay on HL-60(TB) leukemia, in the assay on RXF 393 renal and in the assay with A549 NSCLC was > 100 µM in each case. The TGI in the assay with SNB-19 CNS, with SF-539 CNS, in the assay with BT-549 breast and in the assay with HCC-2998 colon was > 100 µM each time.
Turning to `CCCCn1sc(=O)n(Cc2ccc(CNC(=O)OCc3ccc4c(Br)cc(Br)c(O)c4n3)cc2)c1=O`, the GI50 in the assay on COLO 205 colon is 24.8 µM; with HS 578T breast, 0.959 µM; in the assay on CCRF-CEM leukemia, 0.353 µM; with HL-60(TB) leukemia it was 0.374 µM; in the assay on RXF 393 renal, 0.47 µM; with A549 NSCLC, 3.76 µM. Moreover, the GI50 was 2.66 µM in the assay with SNB-19 CNS, 0.23 µM in the assay with SF-539 CNS, 0.406 µM with BT-549 breast and 4.25 µM in the assay on HCC-2998 colon. In addition, the TGI in the assay on COLO 205 colon, in the assay with HS 578T breast, in the assay on CCRF-CEM leukemia, in the assay with RXF 393 renal, in the assay with A549 NSCLC and with SNB-19 CNS was > 100 µM throughout. For the same compound, the TGI was 0.633 µM with SF-539 CNS, > 100 µM in the assay with BT-549 breast and > 69.8 µM in the assay with HCC-2998 colon.
Consider `CC1=C[S+](c2ccccc2)c2cccc3cc4ccccc4c1c23` (stereo not drawn), for which the GI50 with COLO 205 colon is 0.147 µM; with HS 578T breast it was 0.385 µM; with CCRF-CEM leukemia, 0.265 µM; with HL-60(TB) leukemia, 0.173 µM; in the assay on RXF 393 renal it was 0.618 µM; with A549 NSCLC, 0.309 µM. The GI50 in the assay on SNB-19 CNS was 0.35 µM; in the assay with SF-539 CNS, 0.35 µM; in the assay on BT-549 breast, 0.216 µM; in the assay with HCC-2998 colon, 0.406 µM. Further, the TGI in the assay on COLO 205 colon turned out to be 0.314 µM; with HS 578T breast, 14.8 µM; in the assay on HL-60(TB) leukemia, 1.03 µM; in the assay on RXF 393 renal, 2.05 µM; in the assay with A549 NSCLC, 3.59 µM; in the assay on SNB-19 CNS, 1.5 µM. Besides, the TGI in the assay on SF-539 CNS was 1.28 µM; in the assay on BT-549 breast it was 0.717 µM; in the assay on HCC-2998 colon, 1.58 µM.
Regarding `COc1ccc(-c2cc(=O)c3c(O)cc(C)cc3o2)cc1OC`, the TGI in the assay on COLO 205 colon, in the assay on HS 578T breast, with CCRF-CEM leukemia, with HL-60(TB) leukemia, with RXF 393 renal and with A549 NSCLC was > 100 µM each time. Further, the TGI in the assay on SNB-19 CNS, in the assay on SF-539 CNS, in the assay with BT-549 breast and in the assay on HCC-2998 colon was > 100 µM each time.
